Values of other authors as cited in patent publication US20240374528A1, “[…] DOSAGE FORMS COMPRISING DEUTETRABENAZINE” (AUSPEX PHARMACEUTICALS, INC., priority 2021, published 2024).

Details: relative to tetrabenazine; U.S. Pat. No. 8,524,733

[2H]C([2H])([2H])Oc1cc2c(cc1OC([2H])([2H])[2H])[C@H]1CC(=O)[C@H](CC(C)C)CN1CC2 [Deutetrabenazine, (RR,SS)-1,3,4,6,7,11b-hexahydro-9,10-di(methoxy-D3)-3-(2-methylpropyl)-2H-benzo[a]quinolizin-2-one]
half-life of active metabolites: increased half-life of its active metabolites
